Data: patent US8916570B2 (The United States of America, as represented by the …, priority 2008, dated 2014)
Substitutions are numbered along the chain they refer to. Where two headings read alike, the source gives them in different places. Marks after values point to notes of the source that are not given here.

Experiments:
[1] = target: T1, human A3 adenosine receptor (Homo sapiens, UniProt P0DMS8); set-up: expressed in transfected cells; host or cells: CHO; conditions: species H (human); data from Tchilibon et al. or Kim et al.; cited from earlier work
T1 sequence (P0DMS8 1-318): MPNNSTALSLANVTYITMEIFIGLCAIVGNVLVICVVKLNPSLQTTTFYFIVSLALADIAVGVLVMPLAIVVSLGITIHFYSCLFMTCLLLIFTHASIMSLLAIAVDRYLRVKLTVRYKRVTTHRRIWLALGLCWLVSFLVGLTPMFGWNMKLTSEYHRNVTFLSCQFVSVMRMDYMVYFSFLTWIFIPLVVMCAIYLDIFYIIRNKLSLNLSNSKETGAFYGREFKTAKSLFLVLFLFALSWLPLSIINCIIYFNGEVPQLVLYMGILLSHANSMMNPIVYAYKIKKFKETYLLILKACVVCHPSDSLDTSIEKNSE

[2] = target: T2, human A1 adenosine receptor (Homo sapiens, UniProt P30542); set-up: expressed in transfected cells; host or cells: CHO; conditions: species H (human); data from Tchilibon et al. or Kim et al.; cited from earlier work
T2 sequence (P30542 1-326): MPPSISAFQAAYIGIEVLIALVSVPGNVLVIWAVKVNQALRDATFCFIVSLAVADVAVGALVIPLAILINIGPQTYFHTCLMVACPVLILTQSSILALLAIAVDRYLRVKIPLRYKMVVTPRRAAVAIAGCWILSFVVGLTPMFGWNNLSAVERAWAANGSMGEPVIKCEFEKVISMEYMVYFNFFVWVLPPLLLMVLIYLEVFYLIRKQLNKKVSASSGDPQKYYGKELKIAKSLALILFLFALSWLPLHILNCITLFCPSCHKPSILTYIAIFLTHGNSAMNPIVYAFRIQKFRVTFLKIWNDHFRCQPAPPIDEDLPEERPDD

[3] = target: mouse A2A adenosine receptor (Mus musculus, UniProt Q60613); assay: Competition radioligand binding, mouse A2A AR, HEK293 membranes (Table 1); conditions: read-out: A2A Ki; species M (mouse); [3H]CGS21680
Sequence of mouse A2A adenosine receptor (Q60613 whole entry): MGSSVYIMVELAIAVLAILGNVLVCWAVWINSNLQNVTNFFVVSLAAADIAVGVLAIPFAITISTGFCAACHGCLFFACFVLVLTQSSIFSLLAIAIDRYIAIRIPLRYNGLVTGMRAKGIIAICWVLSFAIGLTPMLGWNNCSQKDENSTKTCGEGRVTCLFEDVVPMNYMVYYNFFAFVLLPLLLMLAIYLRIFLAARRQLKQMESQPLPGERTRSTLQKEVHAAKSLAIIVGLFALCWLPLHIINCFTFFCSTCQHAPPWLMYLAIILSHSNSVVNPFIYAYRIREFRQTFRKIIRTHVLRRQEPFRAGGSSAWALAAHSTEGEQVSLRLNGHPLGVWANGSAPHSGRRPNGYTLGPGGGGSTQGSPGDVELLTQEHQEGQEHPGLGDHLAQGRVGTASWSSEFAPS

[4] = target: T3, mouse A3 adenosine receptor (Mus musculus, UniProt Q61618); assay: Competition radioligand binding, mouse A3 AR, HEK293 membranes (Table 1); conditions: for Ki: read-out: A3 Ki, species M (mouse), [125I]I-AB-MECA
T3 sequence (Q61618 1-319): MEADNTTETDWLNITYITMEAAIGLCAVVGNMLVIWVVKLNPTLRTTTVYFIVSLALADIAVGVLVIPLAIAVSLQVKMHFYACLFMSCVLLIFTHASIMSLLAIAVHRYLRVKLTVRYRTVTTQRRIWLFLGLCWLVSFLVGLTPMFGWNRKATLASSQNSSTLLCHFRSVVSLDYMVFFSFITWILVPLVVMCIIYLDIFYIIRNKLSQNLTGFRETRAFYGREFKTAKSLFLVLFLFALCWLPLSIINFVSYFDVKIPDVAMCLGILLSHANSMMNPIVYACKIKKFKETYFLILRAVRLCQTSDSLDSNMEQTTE

[5] = target: T4, human A2A adenosine receptor (Homo sapiens, UniProt P29274); set-up: expressed in transfected cells; conditions: species H (human); data from Tchilibon et al. or Kim et al.; cited from earlier work
T4 sequence (P29274 whole entry): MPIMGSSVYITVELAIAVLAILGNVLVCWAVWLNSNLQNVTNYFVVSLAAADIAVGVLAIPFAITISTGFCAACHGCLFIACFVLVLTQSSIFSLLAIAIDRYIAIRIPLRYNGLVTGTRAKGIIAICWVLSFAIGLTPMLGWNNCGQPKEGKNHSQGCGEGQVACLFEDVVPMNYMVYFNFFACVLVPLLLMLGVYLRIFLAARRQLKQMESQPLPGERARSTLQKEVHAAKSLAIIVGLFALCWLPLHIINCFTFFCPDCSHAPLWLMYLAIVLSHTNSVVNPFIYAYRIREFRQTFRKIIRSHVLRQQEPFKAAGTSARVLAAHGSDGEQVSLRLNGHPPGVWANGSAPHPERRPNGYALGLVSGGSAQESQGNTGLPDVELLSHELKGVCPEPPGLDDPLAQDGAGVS

[6] = target: T5, mouse A1 adenosine receptor (Mus musculus, UniProt Q60612); assay: Competition radioligand binding, mouse A1 AR, HEK293 membranes (Table 1); conditions: read-out: A1 Ki; species M (mouse); [125I]I-AB-MECA; mean ± SEM
T5 sequence (Q60612 1-326): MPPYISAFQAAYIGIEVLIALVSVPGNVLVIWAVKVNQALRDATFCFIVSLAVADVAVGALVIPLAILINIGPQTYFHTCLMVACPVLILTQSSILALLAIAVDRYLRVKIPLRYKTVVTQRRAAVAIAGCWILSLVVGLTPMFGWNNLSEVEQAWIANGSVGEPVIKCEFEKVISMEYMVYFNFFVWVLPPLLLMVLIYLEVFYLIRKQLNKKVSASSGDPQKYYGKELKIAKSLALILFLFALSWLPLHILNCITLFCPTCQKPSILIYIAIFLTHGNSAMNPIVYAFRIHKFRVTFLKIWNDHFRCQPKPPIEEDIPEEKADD

rat A3 AR [7] = target: T6, rat A3 AR (Rattus norvegicus, UniProt P28647); conditions: species R (rat); data from Tchilibon et al. / Lee et al.; cited from earlier work
T6 sequence (P28647 1-320): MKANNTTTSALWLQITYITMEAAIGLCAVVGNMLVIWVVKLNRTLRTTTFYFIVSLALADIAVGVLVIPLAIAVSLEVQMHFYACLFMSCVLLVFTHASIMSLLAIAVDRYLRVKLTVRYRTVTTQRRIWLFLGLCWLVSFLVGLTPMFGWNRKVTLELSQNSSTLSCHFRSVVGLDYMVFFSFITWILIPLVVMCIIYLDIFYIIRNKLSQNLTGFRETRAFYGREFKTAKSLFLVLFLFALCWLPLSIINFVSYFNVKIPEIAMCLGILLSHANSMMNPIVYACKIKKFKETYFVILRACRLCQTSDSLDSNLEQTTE

mA3AR = target: T7, mA3AR (Mus musculus, UniProt Q61618); conditions: values from Melman et al.; read-out: Affinity (Ki, nM) mA3; cited from earlier work
T7 construct: expressed in transfected cells
T7 sequence (Q61618 1-319): T3 sequence (Q61618 1-319)

rat A1 AR = target: T8, rat A1 AR (Rattus norvegicus, UniProt P25099); conditions: species R (rat); data from Lee et al.; cited from earlier work
T8 sequence (P25099 1-326): T5 sequence (Q60612 1-326) with E151V, A155D, I157R, E316D, I319L, D325E

mA2AAR = target: T9, mA2AAR (Mus musculus, UniProt Q60613); conditions: values from Melman et al.; read-out: Affinity (Ki, nM) mA2A; cited from earlier work
T9 construct: expressed in transfected cells
T9 sequence (Q60613 whole entry): as the sequence (Q60613 whole entry) above

hA2AAR = target: T10, hA2AAR (Homo sapiens, UniProt P29274); conditions: values from the literature (footnotes c, d); read-out: Affinity (Ki, nM) hA2A; cited from earlier work
T10 construct: expressed in transfected cells
T10 sequence (P29274 whole entry): as the sequence (P29274 whole entry) above

mA1AR = target: T11, mA1AR (Mus musculus, UniProt Q60612); conditions: values from Melman et al.; read-out: Affinity (Ki, nM) mA1; cited from earlier work
T11 construct: expressed in transfected cells
T11 sequence (Q60612 1-326): T5 sequence (Q60612 1-326)

hA3AR [8] = target: T12, hA3AR (Homo sapiens, UniProt P0DMS8); conditions: at 10 μM vs maximal effect of 51 (= 100%); values from the literature; cited from earlier work
T12 construct: expressed in transfected cells; host or cells: CHO
T12 sequence (P0DMS8 1-318): T1 sequence (P0DMS8 1-318)

[9] = target: T4, human A2A adenosine receptor; assay: Radioligand binding, human A2A AR (Table 1); conditions: read-out: A2A Ki; species H (human)
rat A3 AR [10] = target: T6, rat A3 AR; assay: Radioligand binding, rat A3 AR (Table 1); conditions: species R (rat)
[11] = target: T2, human A1 adenosine receptor; assay: Radioligand binding, human A1 AR, CHO membranes (Table 1); conditions: read-out: A1 Ki; species H (human)
rat A2A AR = rat A2A AR (Rattus norvegicus, UniProt P30543); conditions: species R (rat); data from Lee et al.; cited from earlier work
Sequence of rat A2A AR (P30543 whole entry): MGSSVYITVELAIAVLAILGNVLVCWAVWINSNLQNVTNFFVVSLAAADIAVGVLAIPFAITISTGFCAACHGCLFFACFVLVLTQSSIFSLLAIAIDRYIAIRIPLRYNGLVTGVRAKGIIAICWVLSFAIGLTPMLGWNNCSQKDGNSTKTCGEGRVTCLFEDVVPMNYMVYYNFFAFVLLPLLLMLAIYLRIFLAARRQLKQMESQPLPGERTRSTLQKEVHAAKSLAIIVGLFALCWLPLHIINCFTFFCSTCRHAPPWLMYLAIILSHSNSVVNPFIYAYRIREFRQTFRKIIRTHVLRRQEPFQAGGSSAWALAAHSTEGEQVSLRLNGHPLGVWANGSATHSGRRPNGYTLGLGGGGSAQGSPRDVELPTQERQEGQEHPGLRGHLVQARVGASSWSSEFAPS

hA1AR = target: T13, hA1AR (Homo sapiens, UniProt P30542); conditions: values from the literature (footnotes c, d); read-out: Affinity (Ki, nM) hA1; cited from earlier work
T13 construct: expressed in transfected cells; host or cells: CHO
T13 sequence (P30542 1-326): T2 sequence (P30542 1-326)

human A2A receptors = target: T14, human A2A receptors (Homo sapiens, UniProt P29274); assay: Binding at human A2A receptor, HEK-293 membranes (Example 4); conditions: read-out: Affinity (Ki nM) A2A
T14 construct: expressed in transfected cells
T14 sequence (P29274 whole entry): as the sequence (P29274 whole entry) above
Description: (§1) The reaction was terminated by filtration with GF/B filters.

hA3AR [12] = target: T12, hA3AR; conditions: values from the literature (footnotes c, d); read-out: Affinity (Ki, nM) hA3; cited from earlier work
[13] = target: T1, human A3 adenosine receptor; assay: [125I]I-AB-MECA binding, human A3 AR, CHO membranes (Table 1)
human A3AR = target: T15, human A3AR (Homo sapiens, UniProt P0DMS8); assay: Inhibition of forskolin-stimulated cyclic AMP production in AR transfected CHO cells (Table 1); type: cell-based; conditions: at 10 μM, in comparison to maximal effect of full agonist 5′-N-ethylcarboxamidoadenosine at 100%
T15 construct: expressed in transfected cells; host or cells: CHO
T15 sequence (P0DMS8 1-318): T1 sequence (P0DMS8 1-318)

human A3 receptor = target: T16, human A3 receptor (Homo sapiens, UniProt P0DMS8); assay: Binding assay at the human A3 receptor, CHO membranes (Example 4)
T16 sequence (P0DMS8 1-318): T1 sequence (P0DMS8 1-318)
Protocol: Cell culture and membrane preparation: CHO (Chinese hamster ovary) cells expressing the recombinant human A3AR were cultured in DMEM (Dulbecco's modified Eagle's medium) supplemented with 10% fetal bovine serum, 100 units/mL penicillin, 100 μg/mL streptomycin, 2 μmol/mL glutamine and 800 μg/mL geneticin. The CHO cells expressing rat A3ARs were cultured in DMEM and F12 (1:1). Cells were harvested by trypsinization. After homogenization and suspension, cell membranes were centrifuged at 500 g for 10 min, and the pellet was re-suspended in 50 mM Tris.HCl buffer (pH 8.0) containing 10 mM MgCl2, 1 mM EDTA and 0.1 mg/mL CHAPS (3[(3-cholamidopropyl)dimethylammonio]-propanesulfonic acid). […] The protein concentration was measured using the Bradford assay.
The mixtures were incubated at 37° C. for 60 min. Binding reactions were terminated by filtration through Whatman GF/B filters under reduced pressure using a MT-24 cell harvester (Brandell, Gaithersburgh, Md., USA). Filters were washed three times with 9 mL ice-cold buffer. Radioactivity was determined in a Beckman 5500B γ-counter.

human A1 receptors = target: T17, human A1 receptors (Homo sapiens, UniProt P30542); assay: Binding at human A1 receptor, CHO membranes (Example 4); conditions: read-out: Affinity (Ki nM) A1
T17 construct: expressed in transfected cells; host or cells: CHO
T17 sequence (P30542 1-326): T2 sequence (P30542 1-326)
Description: as §1

Compound: CNC(=O)[C@@]12C[C@@H]1[C@@H](n1cnc3c(NCc4cc(OC)ccc4OC)nc(Cl)nc31)[C@H](O)[C@@H]2O [Compound 17]
- Ki [1]: 1.4 nM
- Ki [2]: 1600 nM
- Ki [3]: 44.7 ± 5.7 µM
- Selectivity A1/A3 ([4]; mouse): 17
- Ki [4]: 1.72 ± 0.04 nM
- Ki [5]: 10 µM
- Ki [6]: 29 ± 3.3 nM
- Ki (rat A3 AR [7]): 0.87 nM

Compound: CNC(=O)[C@@]12C[C@@H]1[C@@H](n1cnc3c(NCc4cccc(I)c4)nc(Cl)nc31)[C@H](O)[C@@H]2O [Compound 15]
- Ki (mA3AR): 0.8 ± 0.14 nM
- Ki (rat A1 AR): 83.9 nM
- Ki (mA2AAR): 5350 nM
- Ki (hA2AAR): 784 ± 97 nM
- Ki (mA1AR): 7.32 ± 1.5 nM
- % Efficacy hA3 (hA3AR [8]): 100%
- Ki [3]: 5.35 ± 0.86 µM
- Ki [4]: 0.8 ± 0.14 nM
- Ki [9]: 0.784 ± 0.097 µM
- Ki [6]: 7.32 ± 1.5 nM
- Ki (rat A3 AR [10]): 1.1 nM
- Ki [11]: 136 ± 22 nM
- Ki (rat A2A AR): 1660 nM
- Ki (hA1AR): 136 ± 22 nM

Compound: OC1C(O)C(n2cnc3c(NCc4cccc(Br)c4)nc(Cl)nc32)C2CC12 (stereo not drawn) [Compound 109b, (1′R,2′R,3′S, 4′R,5′S)-4′42-Chloro-6-(3-bromobenzylamino)purine-1-2′,3′-O-dihydroxybicyclo-[3.1.0]hexane]
- Ki (human A2A receptors): 1600 nM

Compound: CNC(=O)[C@@]12C[C@@H]1[C@@H](n1cnc3c(NCc4cccc(I)c4)ncnc31)[C@H](O)[C@@H]2O [Compound 31]
- Ki (hA3AR [12]): 2.4 ± 0.5 nM
- Selectivity A1/A3 ([13]; human): up to 1900
- Ki ([13]; read-out: A3 Ki, species H (human)): 2.4 ± 0.5 nM
- % Efficacy at the human A3 AR (human A3AR): 100^j %
- Ki (hA2AAR): 6200 ± 100 nM
- % Efficacy hA3 (hA3AR [8]): 100%
- Ki [9]: 6.2 ± 0.1 µM
- Ki [11]: 700 ± 270 nM
- Ki (hA1AR): 700 ± 270 nM

Compound: OC1C(O)C(n2cnc3c(NC4CC4c4ccccc4)nc(Cl)nc32)C2CC12 (stereo not drawn) [Compound 113b, (1′R,2′R,3′S, 4′R,5′S)-4′-[2-Chloro-6-(trans-2-phenylcyclopropylamino)purine]-2′,3′-O-dihydroxybicyclo-[3.1.0]hexane]
- Ki (human A2A receptors): 2010 nM
- binding to the A3AR (in words) (human A3 receptor): nanomolar binding affinity
- Ki (human A1 receptors): 1790 nM
